{"source": "patent US20030119728A1", "about": "“Stable, nasally, orally or sublingually applicable pharmaceutical preparation” (priority 2000, published 2003)", "assay": "Preliminary study of desmopressin preparations with various pH values, 6 weeks at 50° C. in glass flasks", "type": "physicochemical", "details": "pH 1.0-7.0 tested, desmopressin content and sum of G1-G4", "procedure": "Desmopressin preparations with various pH values (1.0, 2.0, 3.0, 4.0, 5.0, 6.0, and 7.0) were investigated for these preliminary studies. These solutions were stored in glass flasks for 6 weeks at 50° C. and then analysed in the usual way with the use of analytical columns. After 6 weeks the pH values of the seven solutions were unchanged.", "data": [{"smiles": "NC(=O)CC[C@@H]1NC(=O)[C@H](Cc2ccccc2)NC(=O)[C@H](Cc2ccc(O)cc2)NC(=O)CCSSC[C@@H](C(=O)N2CCC[C@H]2C(=O)N[C@H](CCCN=C(N)N)C(=O)NCC(N)=O)NC(=O)[C@H](CC(N)=O)NC1=O", "note": "[desmopressin, 1-deamino-8-D-arginine-vasopressin]", "values": [{"measurement": "pH region in which desmopressin is most stable", "value": "~5.0"}]}]}
